The assay deals with bovine cardiac myofibrils (full-length cardiac myosin ATPase in the native sarcomere) (Bos taurus (Bovine), UniProt Q9BE39). In words: Skinned bovine cardiac myofibril ATPase assay (PK/LDH-coupled). It counts as biochemical. Particulars: Ca2+ activating to 75% of maximal rate; for CDMF75 IC15: concentration giving 15% inhibition; for IC50: read-out: CDMF75 IC50. An outline of the steps:
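Triton-skinned bovine left-ventricle myofibrils (1 mg/mL) in PM 12 buffer (12 mM PIPES, 2 mM MgCl2, pH 6.8) with 50 μM ATP, 0.6 mM EGTA and CaCl2 set for 50% or 75% activation. Steady-state ATPase inhibition followed by PK/LDH-coupled NADH oxidation at 340 nm.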

This note sets out measurements from patent publication US12065436B2, “Cardiac sarcomere inhibitors” (Cytokinetics, Inc., priority 2018, dated 2024).

Chain of bovine cardiac myofibrils (full-length cardiac myosin ATPase in the native sarcomere) (Q9BE39 whole entry): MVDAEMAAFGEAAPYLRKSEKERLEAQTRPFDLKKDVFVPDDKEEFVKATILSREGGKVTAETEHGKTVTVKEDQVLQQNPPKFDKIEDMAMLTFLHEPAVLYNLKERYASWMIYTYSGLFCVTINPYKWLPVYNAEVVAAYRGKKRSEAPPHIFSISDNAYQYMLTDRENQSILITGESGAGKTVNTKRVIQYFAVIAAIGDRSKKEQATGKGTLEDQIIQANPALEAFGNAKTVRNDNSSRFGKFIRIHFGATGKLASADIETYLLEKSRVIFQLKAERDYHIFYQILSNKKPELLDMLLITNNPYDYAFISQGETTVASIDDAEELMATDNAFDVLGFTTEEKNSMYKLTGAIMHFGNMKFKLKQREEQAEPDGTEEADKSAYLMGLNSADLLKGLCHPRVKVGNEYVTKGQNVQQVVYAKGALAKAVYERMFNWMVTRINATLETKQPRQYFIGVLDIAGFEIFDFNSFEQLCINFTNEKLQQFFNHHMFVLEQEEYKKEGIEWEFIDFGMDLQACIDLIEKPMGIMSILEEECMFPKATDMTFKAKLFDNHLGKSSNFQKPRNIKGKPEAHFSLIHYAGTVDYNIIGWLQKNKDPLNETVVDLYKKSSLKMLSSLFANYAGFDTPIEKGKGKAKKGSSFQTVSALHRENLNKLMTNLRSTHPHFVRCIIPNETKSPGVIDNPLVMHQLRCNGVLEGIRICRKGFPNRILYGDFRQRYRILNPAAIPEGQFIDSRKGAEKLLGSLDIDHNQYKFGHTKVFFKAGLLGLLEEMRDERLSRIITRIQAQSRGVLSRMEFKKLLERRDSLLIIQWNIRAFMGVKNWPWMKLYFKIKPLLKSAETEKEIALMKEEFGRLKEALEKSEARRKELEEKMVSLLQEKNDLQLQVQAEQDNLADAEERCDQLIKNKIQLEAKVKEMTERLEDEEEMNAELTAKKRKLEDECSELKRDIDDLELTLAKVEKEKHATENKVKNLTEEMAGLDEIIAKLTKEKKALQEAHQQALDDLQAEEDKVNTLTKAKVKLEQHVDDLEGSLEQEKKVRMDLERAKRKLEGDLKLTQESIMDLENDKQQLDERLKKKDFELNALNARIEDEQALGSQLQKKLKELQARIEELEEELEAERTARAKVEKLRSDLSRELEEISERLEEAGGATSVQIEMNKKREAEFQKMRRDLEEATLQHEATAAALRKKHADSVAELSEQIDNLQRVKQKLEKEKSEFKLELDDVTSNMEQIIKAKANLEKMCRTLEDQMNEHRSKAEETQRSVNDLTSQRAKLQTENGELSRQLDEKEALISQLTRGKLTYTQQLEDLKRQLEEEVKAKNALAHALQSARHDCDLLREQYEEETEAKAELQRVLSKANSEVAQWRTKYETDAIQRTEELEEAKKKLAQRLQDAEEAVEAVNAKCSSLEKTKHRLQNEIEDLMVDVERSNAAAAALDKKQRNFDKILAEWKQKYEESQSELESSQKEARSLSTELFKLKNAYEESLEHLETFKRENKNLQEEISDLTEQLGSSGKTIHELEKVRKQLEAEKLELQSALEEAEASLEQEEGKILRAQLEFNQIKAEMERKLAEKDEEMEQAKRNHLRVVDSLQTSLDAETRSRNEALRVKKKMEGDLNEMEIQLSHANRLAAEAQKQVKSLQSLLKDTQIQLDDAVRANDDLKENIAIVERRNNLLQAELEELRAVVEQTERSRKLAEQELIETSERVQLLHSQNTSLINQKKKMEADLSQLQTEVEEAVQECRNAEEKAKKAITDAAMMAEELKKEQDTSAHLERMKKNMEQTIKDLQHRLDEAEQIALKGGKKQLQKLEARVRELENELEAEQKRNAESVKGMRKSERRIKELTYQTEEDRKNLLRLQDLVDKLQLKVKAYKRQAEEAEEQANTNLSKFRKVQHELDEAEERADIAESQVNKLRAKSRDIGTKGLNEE
Chain of bovine cardiac myofibrils (full-length cardiac myosin ATPase in the native sarcomere) (P85100 whole entry partner): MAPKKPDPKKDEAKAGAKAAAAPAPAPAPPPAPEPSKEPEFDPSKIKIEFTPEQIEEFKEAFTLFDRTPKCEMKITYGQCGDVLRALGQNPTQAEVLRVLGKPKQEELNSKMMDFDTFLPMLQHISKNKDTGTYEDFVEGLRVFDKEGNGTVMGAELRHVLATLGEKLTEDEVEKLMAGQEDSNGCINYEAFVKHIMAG
Chain of bovine cardiac myofibrils (full-length cardiac myosin ATPase in the native sarcomere) (Q3SZE5 whole entry partner): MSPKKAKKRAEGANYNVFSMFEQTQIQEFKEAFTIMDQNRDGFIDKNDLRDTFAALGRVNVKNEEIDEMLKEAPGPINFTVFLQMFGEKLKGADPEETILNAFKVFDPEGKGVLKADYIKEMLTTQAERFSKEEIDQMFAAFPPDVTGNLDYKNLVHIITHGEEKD

Turning to `O=C(N[C@@H]1CCc2cc(-c3noc(C(F)F)n3)ccc21)c1cc(CO)ccn1` [Compound 666, (R)-N-(5-(5-(difluoromethyl)-1,2,4-oxadiazol-3-yl)-2,3-dihydro-1H-inden-1-yl)-4-(hydroxymethyl)picolinamide], the “CDMF75 IC15” value was 800 nM and the IC50 stood at 3400 nM.

As for `Cc1nc(-c2ccc3c(c2)CCC3NC(=O)c2cnoc2C)no1` (stereo not shown) [Compound 46, 5-methyl-N-(5-(5-methyl-1,2,4-oxadiazol-3-yl)-2,3-dihydro-1H-inden-1-yl)isoxazole-4-carboxamide], the “CDMF75 IC15” value worked out at 1200 nM and the IC50 was determined as 4200 nM.

As to `Cn1cc(C(=O)N[C@@H]2CCc3cc(-c4noc(C(F)F)n4)ccc32)cn1` [Compound 186, (R)-N-(5-(5-(difluoromethyl)-1,2,4-oxadiazol-3-yl)-2,3-dihydro-1H-inden-1-yl)-1-methyl-1H-pyrazole-4-carboxamide], the “CDMF75 IC15” value was determined as 700 nM and the IC50 is 2400 nM.

As for `Cn1cc(C(=O)N[C@@H]2COc3cc(-c4noc(C(F)F)n4)ccc32)cn1` [Compound 218, (S)-N-(6-(5-(difluoromethyl)-1,2,4-oxadiazol-3-yl)-2,3-dihydrobenzofuran-3-yl)-1-methyl-1H-pyrazole-4-carboxamide], the “CDMF75 IC15” value turned out to be 500 nM and the IC50 was found to be 1600 nM.

As for `Cc1cc(C(=O)N[C@@H]2CCc3cc(-c4ncc(C)o4)ccc32)ccn1` [Compound 139, (R)-2-methyl-N-(5-(5-methyloxazol-2-yl)-2,3-dihydro-1H-inden-1-yl)isonicotinamide], the “CDMF75 IC15” value came out at 3600 nM and the IC50 came out at 17300 nM.

`Cc1ncoc1C(=O)N[C@@H]1CCc2cc(-c3noc(C4CC4)n3)ccc21` [Compound 390, (R)-N-(5-(5-cyclopropyl-1,2,4-oxadiazol-3-yl)-2,3-dihydro-1H-inden-1-yl)-4-methyloxazole-5-carboxamide]: the “CDMF75 IC15” value came to 400 nM and the IC50 turned out to be 1000 nM.

As for `Cc1nn(C)cc1C(=O)NC1COc2cc(-c3noc(C(F)F)n3)ccc21` (stereo not shown) [Compound 207, N-(6-(5-(difluoromethyl)-1,2,4-oxadiazol-3-yl)-2,3-dihydrobenzofuran-3-yl)-1,3-dimethyl-1H-pyrazole-4-carboxamide], the “CDMF75 IC15” value stood at 1000 nM and the IC50 came to 3600 nM.

For the molecule `O=C(N[C@@H]1CCc2cc(-c3noc(C(F)F)n3)ccc21)C1CCCC1` [Compound 287, (R)-N-(5-(5-(difluoromethyl)-1,2,4-oxadiazol-3-yl)-2,3-dihydro-1H-inden-1-yl)cyclopentanecarboxamide], the “CDMF75 IC15” value turned out to be 39200 nM and the IC50 is over 39200 nM.

In the case of `CCc1nc(-c2ccc3c(c2)CC[C@H]3NC(=O)c2cnn(C[C@@H](O)CO)c2)no1` [Compound 539, N-[(1R)-5-(5-ethyl(1,2,4-oxadiazol-3-yl))indanyl][1-((2R)-2,3-dihydroxypropyl)pyrazol-4-yl]carboxamide], the “CDMF75 IC15” value was determined as 1300 nM and the IC50 stood at 6000 nM.

For `Cc1nc(-c2ccc3c(c2)CCC3NC(=O)c2cnn(C)n2)no1` (stereo not shown) [Compound 44, 2-methyl-N-(5-(5-methyl-1,2,4-oxadiazol-3-yl)-2,3-dihydro-1H-inden-1-yl)-2H-1,2,3-triazole-4-carboxamide], the “CDMF75 IC15” value turned out to be 3300 nM and the IC50 stood at 12300 nM.

Consider `CCc1cc(-c2ccc3c(c2)CC[C@H]3NC(=O)c2ccnc(C)c2)no1` [Compound 404, (R)-N-(5-(5-ethylisoxazol-3-yl)-2,3-dihydro-1H-inden-1-yl)-2-methylisonicotinamide], for which the “CDMF75 IC15” value was 400 nM and the IC50 came out at 1200 nM.

Take `CCc1nc(-c2ccc3c(c2)CCC[C@H]3NC(=O)c2ccnn2C)no1` [Compound 526, (R)-N-(6-(5-ethyl-1,2,4-oxadiazol-3-yl)-1,2,3,4-tetrahydronaphthalen-1-yl)-1-methyl-1H-pyrazole-5-carboxamide]: the “CDMF75 IC15” value stood at 400 nM and the IC50 is 1300 nM.

Take `CCc1nc(-c2ccc3c(c2)CC[C@H]3NC(=O)c2nonc2C)no1` [Compound 633, (R)-N-(5-(5-ethyl-1,2,4-oxadiazol-3-yl)-2,3-dihydro-1H-inden-1-yl)-4-methyl-1,2,5-oxadiazole-3-carboxamide]: the “CDMF75 IC15” value is 200 nM and the IC50 amounted to 800 nM.

With `CCc1cc(-c2ccc3c(c2)CC[C@H]3NC(=O)c2cnn(C)c2)no1` [Compound 413, (R)-N-(5-(5-ethylisoxazol-3-yl)-2,3-dihydro-1H-inden-1-yl)-1-methyl-1H-pyrazole-4-carboxamide], the “CDMF75 IC15” value amounted to 400 nM and the IC50 stood at 1500 nM.

For the molecule `Cc1cc(C(=O)NC2CCc3cc(-c4noc(C(F)F)n4)ccc32)cc(C)n1` (stereo not shown) [Compound 24, N-(5-(5-(difluoromethyl)-1,2,4-oxadiazol-3-yl)-2,3-dihydro-1H-inden-1-yl)-2,6-dimethylisonicotinamide], the “CDMF75 IC15” value was determined as 2100 nM and the IC50 was 8000 nM.

As to `Cc1nc(-c2ccc3c(c2)CC[C@H]3NC(=O)c2oncc2C)no1` [Compound 113, (R)-4-methyl-N-(5-(5-methyl-1,2,4-oxadiazol-3-yl)-2,3-dihydro-1H-inden-1-yl)isoxazole-5-carboxamide], the “CDMF75 IC15” value is 300 nM and the IC50 was determined as 1300 nM.

Turning to `Cc1cnc(C(=O)NC2CCc3cc(-c4noc(C(F)F)n4)ccc32)c(C)n1` (stereo not shown) [Compound 41, N-(5-(5-(difluoromethyl)-1,2,4-oxadiazol-3-yl)-2,3-dihydro-1H-inden-1-yl)-3,5-dimethylpyrazine-2-carboxamide], the “CDMF75 IC15” value came to 6600 nM and the IC50 was over 39200 nM.

Regarding `Cc1ncc(C(=O)NC2CCc3cc(-c4noc(C(F)F)n4)ccc32)s1` (stereo not shown) [Compound 10, N-(5-(5-(difluoromethyl)-1,2,4-oxadiazol-3-yl)-2,3-dihydro-1H-inden-1-yl)-2-methylthiazole-5-carboxamide], the “CDMF75 IC15” value was determined as 1000 nM and the IC50 came out at 3400 nM.

In the case of `C[C@@H](CO)c1nc(-c2ccc3c(c2)CC[C@H]3NC(=O)c2ccnn2C)no1` [Compound 498, N-((R)-5-(5-((S)-1-hydroxypropan-2-yl)-1,2,4-oxadiazol-3-yl)-2,3-dihydro-1H-inden-1-yl)-1-methyl-1H-pyrazole-5-carboxamide], the “CDMF75 IC15” value was 7900 nM and the IC50 is 34700 nM.

For the molecule `Cc1ncc(C(=O)N[C@@H]2CCc3cc(-c4noc(C(C)C)n4)ccc32)o1` [Compound 391, (R)-N-(5-(5-isopropyl-1,2,4-oxadiazol-3-yl)-2,3-dihydro-1H-inden-1-yl)-2-methyloxazole-5-carboxamide], the “CDMF75 IC15” value was 1300 nM and the IC50 was determined as 4600 nM.

`CCc1nc(-c2ccc3c(c2)CC[C@H]3NC(=O)OCC2CC2)no1` [Compound 323, cyclopropylmethyl (R)-(5-(5-ethyl-1,2,4-oxadiazol-3-yl)-2,3-dihydro-1H-inden-1-yl)carbamate]: the “CDMF75 IC15” value stood at 300 nM and the IC50 turned out to be 900 nM.

As to `COCc1nc(-c2ccc3c(c2)CC[C@H]3NC(=O)c2oncc2C)no1` [Compound 114, (R)-N-(5-(5-(methoxymethyl)-1,2,4-oxadiazol-3-yl)-2,3-dihydro-1H-inden-1-yl)-4-methylisoxazole-5-carboxamide], the “CDMF75 IC15” value was found to be 500 nM and the IC50 came out at 2000 nM.

Take `O=C(N[C@@H]1CCc2cc(-c3noc(C4CCC4)n3)ccc21)c1cnn(CCO)c1` [Compound 524, (R)-N-(5-(5-cyclobutyl-1,2,4-oxadiazol-3-yl)-2,3-dihydro-1H-inden-1-yl)-1-(2-hydroxyethyl)-1H-pyrazole-4-carboxamide]: the “CDMF75 IC15” value came out at 1700 nM and the IC50 was 7300 nM.

`Cc1noc(-c2ccc3c(c2)CC[C@H]3NC(=O)c2cnn(CCO)c2C)n1` [Compound 704, (R)-1-(2-hydroxyethyl)-5-methyl-N-(5-(3-methyl-1,2,4-oxadiazol-5-yl)-2,3-dihydro-1H-inden-1-yl)-1H-pyrazole-4-carboxamide]: the “CDMF75 IC15” value stood at 2600 nM and the IC50 amounted to 11400 nM.

Consider `[2H]C([2H])([2H])c1nc(-c2ccc3c(c2)CC[C@H]3NC(=O)C(F)F)no1` [Compound 442, (R)-2,2-difluoro-N-(5-(5-(methyl-d3)-1,2,4-oxadiazol-3-yl)-2,3-dihydro-1H-inden-1-yl)acetamide], for which the “CDMF75 IC15” value was 2500 nM and the IC50 was 12600 nM.

Take `Cc1cc(C(=O)NC2COc3cc(-c4noc(C5CC5)n4)ccc32)n(C)n1` (stereo not shown) [Compound 232, N-(6-(5-cyclopropyl-1,2,4-oxadiazol-3-yl)-2,3-dihydrobenzofuran-3-yl)-1,3-dimethyl-1H-pyrazole-5-carboxamide]: the “CDMF75 IC15” value was determined as 700 nM and the IC50 came to 2400 nM.

For the molecule `Cn1cncc1C(=O)NC1CCc2cc(-c3noc(C(F)F)n3)ccc21` (stereo not shown) [Compound 6, N-(5-(5-(difluoromethyl)-1,2,4-oxadiazol-3-yl)-2,3-dihydro-1H-inden-1-yl)-1-methyl-1H-imidazole-5-carboxamide], the “CDMF75 IC15” value came out at 700 nM and the IC50 was 3400 nM.

`CCc1nc(-c2ccc3c(c2)CC[C@H]3NC(=O)OC2CCCC2)no1` [Compound 325, cyclopentyl (R)-(5-(5-ethyl-1,2,4-oxadiazol-3-yl)-2,3-dihydro-1H-inden-1-yl)carbamate]: the “CDMF75 IC15” value is 500 nM and the IC50 is 1900 nM.

`CC(CO)c1nc(-c2ccc3c(c2)CC[C@H]3NC(=O)c2ccnn2C)no1` (stereo partly drawn) [Compound 496, N-((1R)-5-(5-(1-hydroxypropan-2-yl)-1,2,4-oxadiazol-3-yl)-2,3-dihydro-1H-inden-1-yl)-1-methyl-1H-pyrazole-5-carboxamide]: the “CDMF75 IC15” value amounted to 7100 nM and the IC50 was found to be 34300 nM.
